Data published in ChEMBL document CHEMBL3734731 (Medchemcomm, 2015).
Numbered stars: 1 amine (or outer) side, 2 acyl side, 3 side chain; on linkers, the order of the positions; unused ones are H or OH. Square brackets hold non-standard residues; d marks the D form. Peptide text beside a SMILES is read from it. * marks the point of attachment. NMeW = CN[C@@H](Cc1c[nH]c2ccccc12)C(=O)O; X2 = NS(=O)(=O)N[C@@H](CC(=O)O)C(=O)*; NMeY = CN[C@@H](Cc1ccc(O)cc1)C(=O)O; X1 = NC(=O)N[C@@H](CC(=O)O)C(=O)*; NMeF = CN[C@@H](Cc1ccccc1)C(=O)O; NMeI = CC[C@H](C)[C@H](NC)C(=O)O; Aad = N[C@@H](CCCC(=O)O)C(=O)O; NMeD = CN[C@@H](CC(=O)O)C(=O)O; Methoxyoxalyl = COC(=O)C(=O)*; NMeL = CN[C@@H](CC(C)C)C(=O)O; Suc = O=C(CCC(=O)[*:2])[*:1]; NMeV = CN[C@H](C(=O)O)C(C)C; Oxamoyl = NC(=O)C(=O)*; CONHOH = O=C(NO)*

Assays:
Substance-P receptor = Substance-P receptor (Homo sapiens, UniProt P25103); assay: Displacement of [125I]-BH-SP from NK1 receptor (unknown origin) expressed in CHO cells by scintillation counter; format: cell-based
Substance-K receptor = molecular target: T1, Substance-K receptor (Homo sapiens, UniProt P21452); assay: Displacement of [125I]-NKA from NK2 receptor (unknown origin) expressed in CHO cells by scintillation counter; format: cell-based
T1 sequence (P21452 whole entry): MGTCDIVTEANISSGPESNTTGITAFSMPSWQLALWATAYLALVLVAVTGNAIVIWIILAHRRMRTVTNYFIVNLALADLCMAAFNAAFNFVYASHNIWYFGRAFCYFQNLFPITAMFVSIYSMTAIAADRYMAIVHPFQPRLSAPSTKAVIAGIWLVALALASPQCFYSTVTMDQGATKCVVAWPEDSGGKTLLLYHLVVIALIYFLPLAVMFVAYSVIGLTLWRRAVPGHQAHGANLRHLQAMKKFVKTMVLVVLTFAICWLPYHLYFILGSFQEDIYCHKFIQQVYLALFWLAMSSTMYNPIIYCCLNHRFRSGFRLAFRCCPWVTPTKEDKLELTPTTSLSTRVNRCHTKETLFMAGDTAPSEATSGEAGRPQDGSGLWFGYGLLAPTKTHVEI

Neuromedin-K receptor [1] = molecular target: T2, Neuromedin-K receptor (Homo sapiens, UniProt P29371); assay: Displacement of ([125I]His3-MePhe7)-NKB from NK3 receptor (unknown origin) expressed in CHO cells by scintillation counter; format: cell-based
T2 sequence (P29371 whole entry): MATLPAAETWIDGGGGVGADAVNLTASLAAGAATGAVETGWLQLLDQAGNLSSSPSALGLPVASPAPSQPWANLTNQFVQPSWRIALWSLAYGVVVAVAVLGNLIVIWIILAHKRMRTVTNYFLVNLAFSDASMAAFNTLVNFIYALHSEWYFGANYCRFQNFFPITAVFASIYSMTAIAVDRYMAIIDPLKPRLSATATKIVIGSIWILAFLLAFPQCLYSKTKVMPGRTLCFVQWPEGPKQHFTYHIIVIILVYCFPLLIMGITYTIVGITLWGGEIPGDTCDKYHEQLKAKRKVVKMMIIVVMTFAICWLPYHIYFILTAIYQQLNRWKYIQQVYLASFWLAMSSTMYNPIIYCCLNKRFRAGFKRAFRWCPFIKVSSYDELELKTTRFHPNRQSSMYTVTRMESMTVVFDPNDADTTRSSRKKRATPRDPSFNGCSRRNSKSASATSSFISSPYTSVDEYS

Neuromedin-K receptor [2] = molecular target: T2, Neuromedin-K receptor; assay: Agonist activity at human NK3 receptor expressed in CHO cells assessed as calcium influx relative to 100 nM senktide; format: functional, cell-based
[3] = molecular target: T3, Neuromedin-K receptor (Homo sapiens) (UniProt P29371); assay: Potency index, ratio of EC50 for […] to EC50 for test compound for agonist activity at human NK3 receptor
T3 sequence (whole entry): T2 sequence (P29371 whole entry)

Substance-P receptor, sequence (P25103 whole entry): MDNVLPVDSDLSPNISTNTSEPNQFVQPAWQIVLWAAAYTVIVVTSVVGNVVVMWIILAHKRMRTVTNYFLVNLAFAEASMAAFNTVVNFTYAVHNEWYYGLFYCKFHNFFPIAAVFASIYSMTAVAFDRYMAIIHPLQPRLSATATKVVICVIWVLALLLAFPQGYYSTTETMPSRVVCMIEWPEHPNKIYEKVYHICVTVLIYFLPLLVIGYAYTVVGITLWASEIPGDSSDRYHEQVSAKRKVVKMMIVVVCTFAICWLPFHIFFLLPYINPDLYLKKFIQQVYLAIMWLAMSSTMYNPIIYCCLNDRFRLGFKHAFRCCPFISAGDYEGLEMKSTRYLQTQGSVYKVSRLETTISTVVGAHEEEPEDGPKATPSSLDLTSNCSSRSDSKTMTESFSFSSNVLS

| SMILES | IC50 (Substance-P receptor) [nM] | IC50 (Substance-K receptor) [nM] | IC50 (Neuromedin-K receptor [1]) [nM] | EC50 (Neuromedin-K receptor [2]) [nM] | Ratio EC50 [3] |
| --- | --- | --- | --- | --- | --- |
| CSCC[C@H](NC(=O)[C@H](CC(C)C)NC(=O)CNC(=O)[C@H](Cc1ccccc1)N(C)C(=O)[C@H](Cc1ccccc1)NC(=O)[C@H](CC(=O)O)NS(N)(=O)=O)C(N)=O (X2-F[NMeF]GLM-NH2) | > 10000 | > 10000 | 5.6 | 0.0025 | – |
| CSCC[C@H](NC(=O)[C@H](CC(C)C)NC(=O)CNC(=O)[C@H](Cc1ccccc1)N(C)C(=O)[C@H](Cc1ccccc1)NC(=O)[C@@H](CCC(=O)O)NC(=O)[C@H](CC(=O)O)NC(C)=O)C(N)=O | > 10000 | > 10000 | 37 | 0.018 | – |
| CSCC[C@H](NC(=O)[C@H](CC(C)C)NC(=O)CNC(=O)[C@H](Cc1ccccc1)N(C)C(=O)[C@H](Cc1ccccc1)NC(=O)[C@@H](CCC(=O)O)NC(=O)CCC(=O)O)C(N)=O | > 10000 | > 10000 | 24 | 0.084 | – |
| CSCC[C@H](NC(=O)[C@H](CC(C)C)NC(=O)CNC(=O)[C@H](Cc1ccccc1)N(C)C(=O)[C@H](Cc1ccccc1)NC(=O)[C@H](CC(=O)O)NC(=O)[C@H](CC(=O)O)NC(C)=O)C(N)=O | > 10000 | > 10000 | 68 | 0.031 | – |
| COC(=O)C(=O)N[C@@H](CC(=O)O)C(=O)N[C@@H](Cc1ccccc1)C(=O)N(C)[C@@H](Cc1ccccc1)C(=O)NCC(=O)N[C@@H](CC(C)C)C(=O)N[C@@H](CCSC)C(N)=O (Methoxyoxalyl-DF[NMeF]GLM-NH2) | > 10000 | > 10000 | 4.1 | 0.0029 | – |
| CSCC[C@H](NC(=O)[C@H](CC(C)C)NC(=O)CNC(=O)[C@H](CC(C)C)N(C)C(=O)[C@H](Cc1ccccc1)NC(=O)[C@H](CC(=O)O)NC(=O)CCC(=O)O)C(N)=O (Suc-DF[NMeL]GLM-NH2) | – | – | > 10000 | – | – |
| CSCC[C@H](NC(=O)[C@H](CC(C)C)NC(=O)CNC(=O)[C@H](Cc1ccccc1)N(C)C(=O)[C@H](Cc1ccccc1)NC(=O)[C@H](CCCC(=O)O)NC(=O)CCC(=O)O)C(N)=O (Suc-[Aad]F[NMeF]GLM-NH2) | > 10000 | > 10000 | 9.9 | 0.019 | 2 |
| CSCC[C@H](NC(=O)[C@H](CC(C)C)NC(=O)CNC(=O)[C@H](Cc1ccccc1)N(C)C(=O)[C@H](Cc1ccccc1)NC(=O)[C@@H](CCC(=O)O)NC(=O)[C@@H](CC(=O)O)NC(C)=O)C(N)=O | > 10000 | > 10000 | 68 | 0.017 | – |
| CC[C@H](C)[C@@H](C(=O)NCC(=O)N[C@@H](CC(C)C)C(=O)N[C@@H](CCSC)C(N)=O)N(C)C(=O)[C@H](Cc1ccccc1)NC(=O)[C@H](CC(=O)O)NC(=O)CCC(=O)O (Suc-DF[NMeI]GLM-NH2) | > 10000 | > 10000 | 91 | 0.05 | – |
| CSCC[C@H](NC(=O)[C@H](CC(C)C)NC(=O)CNC(=O)[C@H](Cc1ccc(O)cc1)N(C)C(=O)[C@H](Cc1ccccc1)NC(=O)[C@H](CC(=O)O)NC(=O)CCC(=O)O)C(N)=O (Suc-DF[NMeY]GLM-NH2) | > 10000 | > 10000 | 28 | 0.041 | – |
| CSCC[C@H](NC(=O)[C@H](CC(C)C)NC(=O)CNC(=O)[C@H](C(C)C)N(C)C(=O)[C@H](Cc1ccccc1)NC(=O)[C@H](CC(=O)O)NC(=O)CCC(=O)O)C(N)=O (Suc-DF[NMeV]GLM-NH2) | > 10000 | > 10000 | 104 | 0.064 | – |
| CSCC[C@H](NC(=O)[C@H](CC(C)C)NC(=O)CNC(=O)[C@H](Cc1ccccc1)N(C)C(=O)[C@H](Cc1ccccc1)NC(=O)[C@H](CC(=O)O)NC(=O)NN)C(N)=O | > 10000 | > 10000 | 34 | 0.006 | – |
| CSCC[C@H](NC(=O)[C@H](CC(C)C)NC(=O)CNC(=O)[C@H](Cc1ccccc1)N(C)C(=O)[C@H](Cc1ccccc1)NC(=O)[C@@H](CC(=O)O)NC(=O)[C@@H](CC(=O)O)NC(C)=O)C(N)=O | > 10000 | > 10000 | 55 | 0.017 | – |
| CSCC[C@H](NC(=O)[C@H](CC(C)C)NC(=O)CNC(=O)[C@H](Cc1ccccc1)N(C)C(=O)[C@H](Cc1ccccc1)NC(=O)[C@H](CC(=O)O)NC(=O)NO)C(N)=O ({CONHOH}-DF[NMeF]GLM-NH2) | > 10000 | > 10000 | 10 | 0.043 | – |
| CSCC[C@H](NC(=O)[C@H](CC(C)C)NC(=O)CNC(=O)[C@H](Cc1c[nH]c2ccccc12)N(C)C(=O)[C@H](Cc1ccccc1)NC(=O)[C@H](CC(=O)O)NC(=O)CCC(=O)O)C(N)=O (Suc-DF[NMeW]GLM-NH2) | > 10000 | > 10000 | 123 | 0.033 | – |
| CSCC[C@H](NC(=O)[C@H](CC(C)C)NC(=O)CNC(=O)[C@H](Cc1ccccc1)N(C)C(=O)[C@H](Cc1ccccc1)NC(=O)[C@H](CC(=O)O)NC(=O)C(N)=O)C(N)=O (Oxamoyl-DF[NMeF]GLM-NH2) | > 10000 | > 10000 | 7.9 | 0.011 | – |
| CSCC[C@H](NC(=O)[C@H](CC(C)C)NC(=O)CNC(=O)[C@H](Cc1ccccc1)N(C)C(=O)[C@H](Cc1ccccc1)NC(=O)[C@H](CC(=O)O)NC(=O)[C@@H](CC(=O)O)NC(C)=O)C(N)=O | > 10000 | > 10000 | 73 | 0.018 | – |
| CSCC[C@H](NC(=O)[C@H](CC(C)C)NC(=O)CNC(=O)[C@H](Cc1ccccc1)N(C)C(=O)[C@H](Cc1ccccc1)NC(=O)[C@H](CCC(=O)O)NC(=O)CCC(=O)O)C(N)=O | > 10000 | > 10000 | 6.1 | 0.03 | 2 |
| CSCC[C@H](NC(=O)[C@H](CC(C)C)NC(=O)CNC(=O)[C@H](Cc1ccccc1)N(C)C(=O)[C@H](Cc1ccccc1)NC(=O)[C@H](CC(=O)O)NC(=O)[C@@H](N)CC(=O)O)C(N)=O (H-DDF[NMeF]GLM-NH2) | > 10000 | > 10000 | 175 | 0.063 | – |
| CSCC[C@H](NC(=O)[C@H](CC(C)C)NC(=O)CNC(=O)[C@H](Cc1ccccc1)N(C)C(=O)[C@H](Cc1ccccc1)NC(=O)[C@H](CC(=O)O)NC(N)=O)C(N)=O (X1-F[NMeF]GLM-NH2) | > 10000 | > 10000 | 39 | 0.013 | – |
| CSCC[C@H](NC(=O)[C@H](CC(C)C)NC(=O)CNC(=O)[C@H](Cc1ccccc1)N(C)C(=O)[C@H](Cc1ccccc1)NC(=O)[C@@H](CC(=O)O)NC(=O)CCC(=O)O)C(N)=O | – | > 10000 | – | – | – |
| CSCC[C@H](NC(=O)[C@H](CC(C)C)NC(=O)CNC(=O)[C@H](CC(=O)O)N(C)C(=O)[C@H](Cc1ccccc1)NC(=O)[C@H](CC(=O)O)NC(=O)CCC(=O)O)C(N)=O (Suc-DF[NMeD]GLM-NH2) | – | – | > 10000 | – | – |
| CSCC[C@H](NC(=O)[C@H](CC(C)C)NC(=O)CNC(=O)[C@H](Cc1ccccc1)N(C)C(=O)[C@H](Cc1ccccc1)NC(=O)[C@@H](CC(=O)O)NC(=O)[C@H](CC(=O)O)NC(C)=O)C(N)=O | > 10000 | > 10000 | 83 | 0.024 | – |
